Results published in the NIST ThermoML archive (doi:10.1021/je100143k).
Numbers after ± are expanded uncertainties.

Conditions: Liquid, Ebulliometric method (Recirculating still)

SMILES	vapor or sublimation pressure (263.15 K) [kPa]	vapor or sublimation pressure (268.15 K) [kPa]	vapor or sublimation pressure (278.15 K) [kPa]	vapor or sublimation pressure (288.15 K) [kPa]
FC(F)C(F)F [1,1,2,2-tetrafluoroethane]	155 ± 10	189 ± 10	276 ± 10	386 ± 10
CCF [fluoroethane]	311 ± 10	372 ± 10	517 ± 10	700 ± 10
